Data as given in the NIST ThermoML archive (doi:10.1016/j.jct.2015.01.007).

Assay: molar heat capacity at constant pressure
Details: 101.33 kPa, Crystal 1

O=P([O-])([O-])[O-].[Fe+2].[Li+] [iron(II) lithium phosphate]
Details	molar heat capacity at constant pressure [J/K/mol]
66.42 K, relaxation calorimetry	28.2
67.51 K, relaxation calorimetry	28.84
68.59 K, relaxation calorimetry	29.48
69.68 K, relaxation calorimetry	30.12
70 K, combination of DSC and relaxation calorimetry	30.31
70.77 K, relaxation calorimetry	30.78
71.15 K, relaxation calorimetry	31.26
73.24 K, relaxation calorimetry	32.53
75.34 K, relaxation calorimetry	33.86
77.43 K, relaxation calorimetry	35.17
79.53 K, relaxation calorimetry	36.46
80 K, combination of DSC and relaxation calorimetry	36.84
81.62 K, relaxation calorimetry	37.8
83.72 K, relaxation calorimetry	39.15
85.81 K, relaxation calorimetry	40.41
87.9 K, relaxation calorimetry	41.69
90 K, combination of DSC and relaxation calorimetry	43.39
90 K, relaxation calorimetry	42.91
92.09 K, relaxation calorimetry	44.24
94.19 K, relaxation calorimetry	45.59
96.28 K, relaxation calorimetry	46.89
98.38 K, relaxation calorimetry	48.18
100 K, combination of DSC and relaxation calorimetry	49.48
100.47 K, relaxation calorimetry	49.44
102.56 K, relaxation calorimetry	50.67
104.65 K, relaxation calorimetry	52.08
106.73 K, relaxation calorimetry	53.17
108.85 K, relaxation calorimetry	54.37
110 K, combination of DSC and relaxation calorimetry	55.21
110.94 K, relaxation calorimetry	55.54
113.02 K, relaxation calorimetry	56.62
115.13 K, relaxation calorimetry	58.05
117.22 K, relaxation calorimetry	59.3
119.27 K, relaxation calorimetry	60.39
119.96 K, relaxation calorimetry	60.87
120 K, combination of DSC and relaxation calorimetry	60.65
120.69 K, relaxation calorimetry	61.12
121.4 K, relaxation calorimetry	61.55
122.12 K, relaxation calorimetry	61.93
122.83 K, relaxation calorimetry	62.24
123.54 K, relaxation calorimetry	62.63
124.25 K, relaxation calorimetry	63.1
124.96 K, relaxation calorimetry	63.45
125.68 K, relaxation calorimetry	63.84
126.36 K, relaxation calorimetry	64.12
127.07 K, relaxation calorimetry	64.49
127.81 K, relaxation calorimetry	64.96
130 K, combination of DSC and relaxation calorimetry	65.85
131.36 K, relaxation calorimetry	66.82
140 K, combination of DSC and relaxation calorimetry	70.83
141.32 K, relaxation calorimetry	71.82
150 K, combination of DSC and relaxation calorimetry	75.59
151.46 K, relaxation calorimetry	76.8
160 K, combination of DSC and relaxation calorimetry	80.13
161.54 K, relaxation calorimetry	81.23
170 K, combination of DSC and relaxation calorimetry	84.45
171.6 K, relaxation calorimetry	85.36
180 K, combination of DSC and relaxation calorimetry	88.56
181.68 K, relaxation calorimetry	89.21
190 K, combination of DSC and relaxation calorimetry	92.44
191.78 K, relaxation calorimetry	93.16
200 K, combination of DSC and relaxation calorimetry	96.11
201.84 K, relaxation calorimetry	97.49
210 K, combination of DSC and relaxation calorimetry	99.57
211.78 K, relaxation calorimetry	100.3
220 K, combination of DSC and relaxation calorimetry	102.8
222.01 K, relaxation calorimetry	103.27
230 K, combination of DSC and relaxation calorimetry	105.9
232.1 K, relaxation calorimetry	105.66
240 K, combination of DSC and relaxation calorimetry	108.7
242.04 K, relaxation calorimetry	108.22
250 K, combination of DSC and relaxation calorimetry	111.4
252.15 K, relaxation calorimetry	110.6
260 K, combination of DSC and relaxation calorimetry	113.9
262.34 K, relaxation calorimetry	112.67
270 K, combination of DSC and relaxation calorimetry	116.3
272.43 K, relaxation calorimetry	114.97
280 K, combination of DSC and relaxation calorimetry	118.4
282.56 K, relaxation calorimetry	117.79
284.9 K, Small sample (50 mg) DSC	120.8
290 K, combination of DSC and relaxation calorimetry	120.5
292.55 K, relaxation calorimetry	120.06
293.2 K, Large sample (1 g) DSC	120.85
294.8 K, Small sample (50 mg) DSC	122.5
298.15 K, combination of DSC and relaxation calorimetry	122.1
300 K, combination of DSC and relaxation calorimetry	122.4
302.7 K, relaxation calorimetry	120.5
304.6 K, Small sample (50 mg) DSC	126.1
313.2 K, Large sample (1 g) DSC	125.4
314.5 K, Small sample (50 mg) DSC	128.2
320 K, combination of DSC and relaxation calorimetry	129
324.4 K, Small sample (50 mg) DSC	129.7
333.2 K, Large sample (1 g) DSC	128
334.4 K, Small sample (50 mg) DSC	132.2
340 K, combination of DSC and relaxation calorimetry	133.4
344.3 K, Small sample (50 mg) DSC	134.8
353.2 K, Large sample (1 g) DSC	130.1
354.2 K, Small sample (50 mg) DSC	136.3
360 K, combination of DSC and relaxation calorimetry	137.6
364.1 K, Small sample (50 mg) DSC	137.9
374 K, Small sample (50 mg) DSC	140.2
380 K, combination of DSC and relaxation calorimetry	141.6
383.9 K, Small sample (50 mg) DSC	142.9
393.8 K, Small sample (50 mg) DSC	145.5
400 K, combination of DSC and relaxation calorimetry	145.3
403.8 K, Small sample (50 mg) DSC	147
413.7 K, Small sample (50 mg) DSC	148.9
420 K, combination of DSC and relaxation calorimetry	148.7
423.6 K, Small sample (50 mg) DSC	150.3
433.5 K, Small sample (50 mg) DSC	151.6
440 K, combination of DSC and relaxation calorimetry	151.9
443.4 K, Small sample (50 mg) DSC	152.8
453.3 K, Small sample (50 mg) DSC	154
460 K, combination of DSC and relaxation calorimetry	154.9
463.3 K, Small sample (50 mg) DSC	155
473.2 K, Small sample (50 mg) DSC	156.3
480 K, combination of DSC and relaxation calorimetry	157.7
483.1 K, Small sample (50 mg) DSC	157.5
493 K, Small sample (50 mg) DSC	159
500 K, combination of DSC and relaxation calorimetry	160.3
502.9 K, Small sample (50 mg) DSC	160
512.8 K, Small sample (50 mg) DSC	161
520 K, combination of DSC and relaxation calorimetry	162.7
522.7 K, Small sample (50 mg) DSC	162.2
532.6 K, Small sample (50 mg) DSC	163.4
540 K, combination of DSC and relaxation calorimetry	164.9
542.5 K, Small sample (50 mg) DSC	165
552.4 K, Small sample (50 mg) DSC	166.2
560 K, combination of DSC and relaxation calorimetry	167
562.3 K, Small sample (50 mg) DSC	167.1
572.3 K, Small sample (50 mg) DSC	168.3
580 K, combination of DSC and relaxation calorimetry	169
582.2 K, Small sample (50 mg) DSC	169.6
592.1 K, Small sample (50 mg) DSC	170.4
600 K, combination of DSC and relaxation calorimetry	170.9
602 K, Small sample (50 mg) DSC	171.1
611.9 K, Small sample (50 mg) DSC	173
620 K, combination of DSC and relaxation calorimetry	172.8
621.8 K, Small sample (50 mg) DSC	173.6
631.7 K, Small sample (50 mg) DSC	174.2
640 K, combination of DSC and relaxation calorimetry	174.5
641.6 K, Small sample (50 mg) DSC	174.9
651.6 K, Small sample (50 mg) DSC	175.7
660 K, combination of DSC and relaxation calorimetry	176.3
661.5 K, Small sample (50 mg) DSC	176.8
671.8 K, Small sample (50 mg) DSC	177.4
680 K, combination of DSC and relaxation calorimetry	178.1
681.3 K, Small sample (50 mg) DSC	178
691.3 K, Small sample (50 mg) DSC	178.7
700 K, combination of DSC and relaxation calorimetry	179.8
701.2 K, Small sample (50 mg) DSC	179.4
711.1 K, Small sample (50 mg) DSC	180.6
720 K, combination of DSC and relaxation calorimetry	181.6
721 K, Small sample (50 mg) DSC	181.6
730.9 K, Small sample (50 mg) DSC	182.4
740 K, combination of DSC and relaxation calorimetry	183.5
740.8 K, Small sample (50 mg) DSC	183.5
750.8 K, Small sample (50 mg) DSC	184.5
760 K, combination of DSC and relaxation calorimetry	185.5
760.7 K, Small sample (50 mg) DSC	185.7
770.6 K, Small sample (50 mg) DSC	186.9
